# Measured values as given in patent publication US6627441B1, “Increasing levels of growth regulator and/or water stress during embryo development” (priority 1998, dated 2003).
# Tests used:
# [1] = tested on: white spruce somatic embryos; experiment: Effect of ABA concentration and PEG medium water potential on maturation frequency and precocious germination (Example 1); format: cell-based; conditions: for mean maturation frequency / precocious germination (appearance of embryos): 6 weeks; for mean maturation frequency: embryos per dish; for total of means (maturation frequency): summed over PEG medium water potentials 230-310
# Experimental: For maturation, the ½ LM basal medium was supplemented with 250 mg/L glutamine and 500 mg/L casein hydrolysate and 3% sucrose. Amino acids were filter sterilized and added to cooled media. ABA (Sigma A 2784) stock solutions were prepared by first dissolving ABA in concentrated NaOH. ABA was added after autoclaving. The purity and source of (+)-ABA can influence results. Purer (+)-ABA would be required in lower amounts. Actual levels need to be determined depending on the source of ABA, the components of the culture medium, and species being studied. […] It is also possible to complement the maturation medium by incorporating auxin and/or cytokinin, or plant growth promoters having auxin-like and cytokinin-like activity. Similarly, gibberellin is in principle also a suitable complementary growth promoter, and an empirical approach taking into account such factors as plant species, environment, and so forth should be used to determine the concentration etc. of gibberellin.
# For maturation, the solidified culture medium in 9 cm petri dishes was overlaid with a filter paper support to facilitate transfers to fresh media. Onto this was pipetted 0.75 mL of a 20% suspension of precultured cells resuspended in fresh hormone-free preculture medium with 3% sucrose. Cultures were incubated at 25 ° C. in the dark and transferred to fresh medium every two weeks.
# Thus, immature white spruce somatic embryos were cultured on medium containing 8, 16, 24, and 32 μM ABA. […] Embryos were transferred to fresh medium of the same composition and were cultured for a total of six weeks. The number of embryos per dish were then counted and the appearance of the embryos was recorded. Results are for three to eight dishes per treatment. A total of 2439 mature embryos were recorded.
# somatic embryos = experiment: High intensity water stressing and ABA, inhibition of precocious germination (Example 3); format: cell-based, white spruce and Norway spruce
# Experimental: Somatic embryos were plated on medium containing PEG adjusted to 290 mmol/kg PEG and 16 μM ABA then either transferred to fresh medium of the same composition every two weeks, or transferred every two weeks to medium containing increasing ABA and PEG as outlined in Table 3.
# [2] = tested on: white spruce somatic embryos; experiment: Somatic seedling length after desiccation and germination (Example 8); format: cell-based; conditions: ABA raised to 40 μM and water potential to 400 or 540 mmol/kg with PEG, versus control; two weeks
# Description: In order to desiccate the somatic embryos, they were transferred on their filter paper supports to an empty petri dish. The lid was replaced and left unsealed to prevent contamination while allowing the moisture to escape from the dish. Somatic embryos were desiccated in a sterile chamber in which sterile air at ambient relative humidity (usually 20-60% r.h.) was passed. Similarly, embryos may be desiccated in one or more controlled gaseous environments of relative humidity, ranging from about 5% to 100%. […] Embryos were usually left two weeks to dry. Desiccated embryos can then be stored, preferably frozen, or germinated directly.
# For germination, the somatic embryos upon their filter paper supports were rehydrated on germination medium. This consisted of ½ LM, 2% sucrose, 0.7% agar (Sigma), with no growth regulators, glutamine or casein hydrolysate, in petri dishes or Sigma PHYTATRAYS™. […]
# Somatic embryos were produced following the methods described in Example 4. […] One batch of desiccated spruce embryos produced using these methods was measured and a moisture content of about 7.7 (±0.2)% recorded. […] Two weeks after imbibition, the somatic plantlets were removed from the culture medium and their lengths were measured. Between 53 to 63 somatic plantlets were recorded per treatment.
# [3] = tested on: white spruce somatic embryos; experiment: Germination and transfer to soil after increasing PEG/ABA culture (Example 8); format: cell-based
# Experimental: In another experiment, white spruce somatic embryos were transferred through the 1/20 hormone increasing PEG/ABA liquid maturation culture (Example 7, treatment 8), then plated onto 20-40 μM ABA, 290-540 mmol/kg PEG transfer schedule (Example 4, treatment 6) followed by desiccation at 4° C. 203 embryos were selected and germinated at 4-12° C. for 4 weeks and produced roots and shoots with needles at a frequency of 191/203=94%. White spruce somatic seedlings produced subsequently using these methods survived transfer to soil in a greenhouse and underwent continued growth at frequencies of 95-100%. However, prolonging maturation of cotyledonary embryos in the presence of high water stress and ABA was detrimental to germination. Thus, after seven to eight weeks of culture of spruce somatic embryos the germination vigour (seedling elongation) and frequencies decreased. Late stage water stress of mid to late cotyledonary stage embryos to below about 30-40% moisture content preferably should not be carried out in the presence of a replenishing source of ABA. This will presumably prevent build up of endogenous ABA, and allow endogenous ABA levels to naturally decline.
smiles,measurement,setting,value
"CC1=CC(=O)CC(C)(C)[C@@]1(O)/C=C/C(C)=C\C(=O)O [ABA, abscisic acid]",mean maturation frequency,"[1]; ABA 8 μm, PEG medium water potential 230 (mmol/kg)",29.7
same,mean maturation frequency,"[1]; ABA 8 μm, PEG medium water potential 260 (mmol/kg)",53.0
same,mean maturation frequency,"[1]; ABA 8 μm, PEG medium water potential 290 (mmol/kg)",44.3
same,mean maturation frequency,"[1]; ABA 8 μm, PEG medium water potential 310 (mmol/kg)",10.7
same,precocious germination (appearance of embryos),"[1]; ABA 8 μm, PEG medium water potential 310 (mol/kg)",greening
same,total of means (maturation frequency),[1]; ABA 8 μm,137.7
same,mean maturation frequency,"[1]; ABA 16 μm, PEG medium water potential 230 (mmol/kg)",15.6
same,mean maturation frequency,"[1]; ABA 16 μm, PEG medium water potential 260 (mmol/kg)",44.0
same,precocious germination (appearance of embryos),"[1]; ABA 16 μm, PEG medium water potential 260 (mol/kg)",greening
same,mean maturation frequency,"[1]; ABA 16 μm, PEG medium water potential 290 (mmol/kg)",20.1
same,mean maturation frequency,"[1]; ABA 16 μm, PEG medium water potential 310 (mmol/kg)",0
same,total of means (maturation frequency),[1]; ABA 16 μm,79.7
same,mean maturation frequency,"[1]; ABA 24 μm, PEG medium water potential 230 (mmol/kg)",28.0
same,precocious germination (appearance of embryos),"[1]; ABA 24 μm, PEG medium water potential 230 (mol/kg)",greening
same,mean maturation frequency,"[1]; ABA 24 μm, PEG medium water potential 260 (mmol/kg)",22.8
same,mean maturation frequency,"[1]; ABA 24 μm, PEG medium water potential 290 (mmol/kg)",28.7
same,mean maturation frequency,"[1]; ABA 24 μm, PEG medium water potential 310 (mmol/kg)",1.0
same,total of means (maturation frequency),[1]; ABA 24 μm,80.5
same,mean maturation frequency,"[1]; ABA 32 μm, PEG medium water potential 230 (mmol/kg)",28.0
same,mean maturation frequency,"[1]; ABA 32 μm, PEG medium water potential 260 (mmol/kg)",22.7
same,mean maturation frequency,"[1]; ABA 32 μm, PEG medium water potential 290 (mmol/kg)",8.6
same,mean maturation frequency,"[1]; ABA 32 μm, PEG medium water potential 310 (mmol/kg)",2.5
same,total of means (maturation frequency),[1]; ABA 32 μm,61.8
same,precocious germination,"somatic embryos; maintained on 290 mmol/kg PEG and 16 μM ABA, fresh medium every two weeks, week 10",precociously germinated
same,precocious germination,"somatic embryos; schedule of increasing ABA (16 to 56 μM) and PEG (290 to 650 mmol/kg), biweekly transfer, 10 weeks",no evidence of precocious germination
same,increase in plantlet length,[2],~50%
same,frequency of roots and shoots with needles,"[3]; Example 7 treatment 8, then 20-40 μM ABA, 290-540 mmol/kg PEG schedule, desiccation at 4° C., germinated at 4-12° C. for 4 weeks",94%
same,survival of transfer to soil in a greenhouse with continued growth,[3]; somatic seedlings produced using increasing PEG/ABA methods,95-100%
